Data reported in ChEMBL document CHEMBL1821572, “Discovery of a novel series of selective HCN1 blockers” (Bioorg Med Chem Lett, 2011).

Experiments:
[1] = biological target: T1, Potassium/sodium hyperpolarization-activated cyclic nucleotide-gated channel 4 (Homo sapiens, UniProt Q9Y3Q4); assay: Inhibition of human HCN4 heterologously expressed in HEK-293 cells after 30 mins by VIPR assay; type: cell-based, HEK293
T1 sequence (Q9Y3Q4 whole entry): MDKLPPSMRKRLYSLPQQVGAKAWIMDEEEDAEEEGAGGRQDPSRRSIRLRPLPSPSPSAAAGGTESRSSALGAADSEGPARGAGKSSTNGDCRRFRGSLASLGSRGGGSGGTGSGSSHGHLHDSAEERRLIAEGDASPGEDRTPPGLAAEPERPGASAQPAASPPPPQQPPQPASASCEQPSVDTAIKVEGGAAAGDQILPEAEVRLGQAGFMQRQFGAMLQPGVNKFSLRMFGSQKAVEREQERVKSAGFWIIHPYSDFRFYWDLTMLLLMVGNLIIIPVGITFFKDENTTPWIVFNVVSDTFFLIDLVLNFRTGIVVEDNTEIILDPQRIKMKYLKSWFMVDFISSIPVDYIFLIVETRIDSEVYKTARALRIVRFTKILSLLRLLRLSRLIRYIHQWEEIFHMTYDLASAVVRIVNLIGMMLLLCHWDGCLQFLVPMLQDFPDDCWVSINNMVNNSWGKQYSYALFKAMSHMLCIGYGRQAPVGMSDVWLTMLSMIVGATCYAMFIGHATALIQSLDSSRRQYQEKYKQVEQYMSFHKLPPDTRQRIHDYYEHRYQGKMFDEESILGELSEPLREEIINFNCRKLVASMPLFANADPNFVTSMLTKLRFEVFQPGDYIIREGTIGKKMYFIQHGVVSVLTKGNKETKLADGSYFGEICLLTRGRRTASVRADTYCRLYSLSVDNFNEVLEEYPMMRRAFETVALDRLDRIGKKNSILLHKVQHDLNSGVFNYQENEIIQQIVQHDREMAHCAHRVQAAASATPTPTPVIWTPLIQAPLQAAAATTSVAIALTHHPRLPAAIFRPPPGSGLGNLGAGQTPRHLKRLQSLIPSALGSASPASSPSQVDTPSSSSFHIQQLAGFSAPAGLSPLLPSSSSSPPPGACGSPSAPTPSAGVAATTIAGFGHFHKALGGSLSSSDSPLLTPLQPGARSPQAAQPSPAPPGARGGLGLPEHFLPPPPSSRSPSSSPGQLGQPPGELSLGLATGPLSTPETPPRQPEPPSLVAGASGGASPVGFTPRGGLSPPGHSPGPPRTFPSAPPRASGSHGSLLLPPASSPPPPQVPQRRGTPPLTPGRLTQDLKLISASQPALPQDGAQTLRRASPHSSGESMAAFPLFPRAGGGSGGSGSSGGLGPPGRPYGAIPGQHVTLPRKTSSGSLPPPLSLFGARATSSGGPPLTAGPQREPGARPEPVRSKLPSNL

[2] = biological target: T2, Potassium/sodium hyperpolarization-activated cyclic nucleotide-gated channel 1 (Homo sapiens, UniProt O60741); assay: Inhibition of human HCN1 heterologously expressed in HEK-293 cells after 30 mins by VIPR assay; type: cell-based, HEK293
T2 sequence (O60741 whole entry): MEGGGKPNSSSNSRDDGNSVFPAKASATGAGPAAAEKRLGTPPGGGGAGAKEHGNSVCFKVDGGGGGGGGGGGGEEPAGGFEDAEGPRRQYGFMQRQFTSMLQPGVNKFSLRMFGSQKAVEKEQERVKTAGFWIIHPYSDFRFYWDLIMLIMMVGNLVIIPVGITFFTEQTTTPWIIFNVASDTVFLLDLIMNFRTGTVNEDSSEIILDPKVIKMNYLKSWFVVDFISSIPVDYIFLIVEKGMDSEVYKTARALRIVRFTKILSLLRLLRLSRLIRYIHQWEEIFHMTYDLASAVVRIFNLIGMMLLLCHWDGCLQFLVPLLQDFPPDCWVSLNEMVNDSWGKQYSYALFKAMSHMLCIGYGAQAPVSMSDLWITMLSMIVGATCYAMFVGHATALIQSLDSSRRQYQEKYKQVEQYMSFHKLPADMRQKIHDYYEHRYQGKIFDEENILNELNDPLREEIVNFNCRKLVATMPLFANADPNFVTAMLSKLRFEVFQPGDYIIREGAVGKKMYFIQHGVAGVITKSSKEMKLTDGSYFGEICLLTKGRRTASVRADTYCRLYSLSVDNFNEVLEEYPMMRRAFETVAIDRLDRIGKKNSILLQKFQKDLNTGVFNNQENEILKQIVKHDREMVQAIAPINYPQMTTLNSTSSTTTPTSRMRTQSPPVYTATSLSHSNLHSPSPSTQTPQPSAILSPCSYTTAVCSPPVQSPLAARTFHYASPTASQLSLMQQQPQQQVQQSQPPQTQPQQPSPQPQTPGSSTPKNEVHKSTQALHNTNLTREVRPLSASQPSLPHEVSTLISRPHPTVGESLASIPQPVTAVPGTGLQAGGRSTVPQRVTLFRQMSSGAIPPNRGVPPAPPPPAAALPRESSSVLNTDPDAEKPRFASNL

Homo sapiens [3] = species: Homo sapiens; assay: Selectivity for human HCN1 over human HCN4
[4] = Half life in human liver microsomes; type: ADME, Microsome
Homo sapiens [5] = species: Homo sapiens; assay: Selectivity for human HCN1 over human HCN2
Mus musculus [6] = species: Mus musculus; assay: Toxicity in C57BL/6 mouse assessed as induction of bradycardia after 50 mins by ECG study; type: organism-based; settings: in vivo
Mus musculus [7] = assay: Antiallodynic activity in ip dosed C57BL/6 mouse spared-nerve injury model assessed as reduction of tactile allodynia after 60 mins; type: functional; settings: C57BL/6, ip, 1 h

Cc1ccccc1C(=O)NCC1(N2CCN(C)CC2)CCCCC1
IC50 [1]: > 200 µM
IC50 [2]: 63.1 µM
Selectivity ratio (Homo sapiens [3]): 10

CN1CCN(C2(CNC(=O)c3ccccc3F)Cc3ccccc3C2)CC1
IC50 [1]: > 200 µM
IC50 [2]: 25.1 µM

COc1ccccc1C(=O)NCC1(N2CCN(C)CC2)CCCCC1
IC50 [1]: 5.01 µM
IC50 [2]: 0.398 µM
Selectivity ratio (Homo sapiens [3]): 10

CCOc1ccccc1C(=O)NCC1(N2CCN(C)CC2)CCCC1
IC50 [1]: 5.01 µM
IC50 [2]: 0.398 µM

COc1ccc(C(=O)NCC2(N3CCN(C)CC3)Cc3ccccc3C2)cc1
IC50 [1]: > 200 µM
IC50 [2]: 100 µM

CCOc1ccccc1C(=O)NCC1(N2CCN(C)CC2)CCCCC1
IC50 [1]: 1.26 µM
half-life [4]: 22 min
IC50 [2]: 0.126 µM
Selectivity ratio (Homo sapiens [3]): 10

COc1ccccc1C(=O)NCC(c1ccc(C)cc1)N1CCN(C)CC1 (configuration not stated)
IC50 [1]: 20 µM
IC50 [2]: 2.51 µM

CN1CCN(C2(CNC(=O)c3ccccc3Cl)CCCCC2)CC1
IC50 [1]: 31.6 µM
IC50 [2]: > 200 µM
Selectivity ratio (Homo sapiens [3]): 10

CN1CCN(C2(CNC(=O)c3ccccc3OC(F)(F)F)Cc3ccccc3C2)CC1
IC50 [1]: > 200 µM
IC50 [2]: 25.1 µM

CCOc1ccccc1C(=O)NCC1(N2CCN(C(C)C)CC2)Cc2ccccc2C1
IC50 [1]: 3.16 µM
IC50 [2]: 0.631 µM

CCc1ccccc1C(=O)NCC1(N2CCN(C(C)C)CC2)CCCCC1
IC50 [1]: 79.4 µM
IC50 [2]: > 200 µM
Selectivity ratio (Homo sapiens [3]): 10

COc1ccccc1C(=O)NCC1(N2CCN(C(C)C)CC2)CCCCC1
IC50 [1]: 0.794 µM
IC50 [2]: 0.0316 µM
Selectivity ratio (Homo sapiens [3]): 10

CCOc1ccccc1C(=O)NCC1(N2CCN(c3ccccc3)CC2)CCCCC1
IC50 [1]: 100 µM
IC50 [2]: > 200 µM
Selectivity ratio (Homo sapiens [3]): 10

COc1ccc([C@@H](C)CN(C/C=C\CN2C=Cc3cc(OC)c(OC)cc3CC2=O)C/C=C\CN2C=Cc3cc(OC)c(OC)cc3CC2=O)cc1OC
Selectivity ratio (Homo sapiens [5]): 30
Selectivity ratio (Homo sapiens [3]): > 150

CN1CCN(C2(CNC(=O)c3ccccc3O)Cc3ccccc3C2)CC1
IC50 [1]: > 200 µM
IC50 [2]: > 200 µM

CCN(c1ccccc1)c1cc(NC)[n+](C)c(C)n1.[Cl-]
IC50 [1]: 0.0316 µM
ED20 (Mus musculus [6]): 1.3 mg/kg
IC50 [2]: 0.158 µM
ED50 (Mus musculus [7]): 3 mg/kg

COc1cccc(C(=O)NCC2(N3CCN(C)CC3)Cc3ccccc3C2)c1
IC50 [1]: > 200 µM
IC50 [2]: 63.1 µM

COc1ccccc1C(=O)NCC1(N2CCN(C)CC2)CCc2ccccc2C1 (configuration not stated)
IC50 [1]: 6.31 µM
IC50 [2]: 1.58 µM

CC(C)Oc1ccccc1C(=O)NCC1(N2CCN(C(C)C)CC2)CCCCC1
IC50 [1]: 1.58 µM
IC50 [2]: 0.251 µM
Selectivity ratio (Homo sapiens [3]): 10

CCOc1ccccc1C(=O)NCC1(N2CCCCC2)Cc2ccccc2C1
IC50 [1]: 39.8 µM
IC50 [2]: 15.8 µM

CCOc1ccccc1C(=O)NCC1(N2CCN(CC)CC2)CCCCC1
IC50 [1]: 0.158 µM
IC50 [2]: 0.0316 µM
Selectivity ratio (Homo sapiens [3]): 10

CCOc1ccccc1C(=O)NCC1(N2CCN(C3CC3)CC2)CCCCC1
IC50 [1]: 0.316 µM
IC50 [2]: 0.0501 µM
Selectivity ratio (Homo sapiens [3]): 10

COc1ccccc1C(=O)NCC1(N2CCCCC2)Cc2ccccc2C1
IC50 [1]: > 200 µM
IC50 [2]: 50.1 µM

CCOc1ccccc1C(=O)NCC1(N2CCN(C3CCC3)CC2)CCCCC1
IC50 [1]: 0.794 µM
IC50 [2]: 0.0794 µM
Selectivity ratio (Homo sapiens [3]): 10

COc1ccccc1C(=O)NCC1(N2CCN(C(C)C)CC2)CCN(c2ccccc2)CC1
IC50 [1]: 5.01 µM
IC50 [2]: 0.631 µM

CCOc1ccccc1C(=O)NCC1(N2CCN(C3CCCC3)CC2)CCCCC1
IC50 [1]: 0.794 µM
IC50 [2]: 0.2 µM
Selectivity ratio (Homo sapiens [3]): 10

CCOc1ccccc1C(=O)NCC1(N2CCN(C)CC2)Cc2ccccc2C1
IC50 [1]: 5.01 µM
IC50 [2]: 0.398 µM

COc1ccccc1C(=O)NCC1(N2CCN(C)CC2)Cc2ccccc2C1
IC50 [1]: 20 µM
IC50 [2]: 1.26 µM

CN1CCN(C2(CNC(=O)c3ccccc3OCc3ccccc3)Cc3ccccc3C2)CC1
IC50 [1]: 2.51 µM
IC50 [2]: 0.631 µM

COc1ccccc1C(=O)NCCN1CCN(C)CC1
pIC50 ([1]; hek293): > 3.7
IC50 [2]: > 200 µM

CCOc1ccccc1C(=O)NCC1(N2CCN(C(C)C)CC2)CCCCC1
IC50 [1]: 0.316 µM
IC50 [2]: 0.0158 µM
Selectivity ratio (Homo sapiens [3]): 10

CN1CCN(C2(CNC(=O)c3ccccc3Cl)Cc3ccccc3C2)CC1
IC50 [1]: 158 µM
IC50 [2]: 20 µM

CCOc1ccccc1C(=O)NCC1(N2CCN(C(C)C)CC2)CCOCC1
IC50 [1]: 3.98 µM
IC50 [2]: 0.316 µM
